Data taken from ChEMBL document CHEMBL1128754, “The SAR of 6-(N-alkyl-N-acyl)-2-propyl-3-[(2-tetrazol-5-yl)biphen-4-yl)methyl]-quinazolinones as balanced affinity antagonists of the human AT1 and AT2 receptors” (Bioorg Med Chem Lett, 1995).
Substitutions are numbered along the chain they refer to.

Legend:
[1] = Bioavailability in dog (dose 3.0 mg/kg p.o.); assay type: ADME, organism-based, Canis lupus familiaris; conditions: in vivo, po
[2] = target: T1, Angiotensin II receptor (AT-1) type-1 (Rattus norvegicus, UniProt P29089+P25095); experiment: Binding affinity against AT1 receptor in rat adrenal tissue; assay type: tissue-based
T1 sequence (P29089 whole entry): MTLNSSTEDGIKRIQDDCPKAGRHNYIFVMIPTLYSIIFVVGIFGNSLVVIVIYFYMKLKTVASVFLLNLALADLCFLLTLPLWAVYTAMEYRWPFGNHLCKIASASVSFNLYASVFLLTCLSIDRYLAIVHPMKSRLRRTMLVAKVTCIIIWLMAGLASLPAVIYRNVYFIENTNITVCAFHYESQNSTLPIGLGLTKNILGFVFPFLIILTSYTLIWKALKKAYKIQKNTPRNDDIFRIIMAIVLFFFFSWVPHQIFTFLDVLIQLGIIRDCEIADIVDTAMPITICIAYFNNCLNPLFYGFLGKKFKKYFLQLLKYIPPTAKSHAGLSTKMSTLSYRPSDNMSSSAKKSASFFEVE
T1 sequence (P25095 whole entry): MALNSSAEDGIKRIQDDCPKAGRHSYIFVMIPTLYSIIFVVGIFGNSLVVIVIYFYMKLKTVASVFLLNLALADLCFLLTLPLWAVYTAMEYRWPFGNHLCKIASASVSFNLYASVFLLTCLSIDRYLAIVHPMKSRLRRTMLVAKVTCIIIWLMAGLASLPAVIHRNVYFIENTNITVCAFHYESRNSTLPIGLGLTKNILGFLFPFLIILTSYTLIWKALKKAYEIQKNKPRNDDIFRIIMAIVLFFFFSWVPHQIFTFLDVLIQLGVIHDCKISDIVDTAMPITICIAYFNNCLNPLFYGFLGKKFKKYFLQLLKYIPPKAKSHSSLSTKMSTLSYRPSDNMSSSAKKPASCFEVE

[3] = target: Angiotensin II receptor (Homo sapiens) (UniProt P30556+P50052); experiment: Ratio of receptor binding affinity AT2/AT1 in human adrenal tissue in th+e presence of 2 mg/ml bovine serum albumin; assay type: protein assay
[4] = target: Angiotensin II receptor (Rattus norvegicus) (UniProt P29089+P25095+P35351); experiment: Ratio of receptor binding affinity AT2/AT1 in rat adrenal tissue
[5] = Bioavailability in dog (dose of 1.0 mg/kg i.v.) 0.5 hr; assay type: ADME, organism-based, Canis lupus familiaris; conditions: in vivo, iv
[6] = species: Rattus norvegicus; conditions: dose 1 mg/kg; route intravenous
[7] = species: Rattus norvegicus; conditions: dose 1 mg/kg; route oral
[8] = physchem; conditions: octanol/water
Description: Partition coefficient (logP)

[9] = target: T2, Type-1 angiotensin II receptor (Homo sapiens, UniProt P30556); experiment: biochemical
T2 sequence (P30556 whole entry): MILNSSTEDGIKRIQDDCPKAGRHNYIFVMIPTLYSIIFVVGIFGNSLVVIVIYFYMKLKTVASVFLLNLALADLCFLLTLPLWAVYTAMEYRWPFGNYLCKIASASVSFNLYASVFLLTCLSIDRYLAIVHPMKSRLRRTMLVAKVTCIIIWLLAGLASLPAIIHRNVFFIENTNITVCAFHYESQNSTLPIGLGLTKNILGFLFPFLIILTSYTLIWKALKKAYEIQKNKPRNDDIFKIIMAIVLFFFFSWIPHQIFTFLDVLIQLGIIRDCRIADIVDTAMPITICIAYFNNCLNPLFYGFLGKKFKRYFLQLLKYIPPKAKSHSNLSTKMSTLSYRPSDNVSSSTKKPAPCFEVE
Description: Binding affinity against AT1 receptor in human adrenal tissue

[10] = target: T3, Type-1 angiotensin II receptor (Oryctolagus cuniculus, UniProt P34976); experiment: biochemical
T3 sequence (P34976 whole entry): T2 sequence (P30556 whole entry) with I2M, V49A, I254V, I270V, R272H, R311K, T349S, A353V
Description: Binding affinity against AT1 receptor in rabbit aorta

Cn1nnnc1-c1ccccc1-c1ccc(Cn2cnc3ccc(N(Cc4cccnc4)C(=O)c4ccccc4)cc3c2=O)cc1
bioavailability [1]: 56%
IC50 [2]: 0.3 nM
Ratio [3]: 1.3
Ratio [4]: 2.1
bioavailability [5]: 84%
Duration [6]: >3 h
Duration [7]: >3 h
logP [8]: 3.4
IC50 [9]: 0.9 nM
IC50 [10]: 1.7 nM
